Experimental data as given in a melting point compilation (Tetko et al.; mined from patent text by program, amines drawn as free bases though some values may be those of a salt).

SMILES	melting point
COc1ccccc1N1CCN(Cc2ccc(CC(=O)O)cc2)CC1	87 to 90 °C
COc1cccc(S(N)(=O)=O)c1C	193 °C
Cc1nc(-c2ccc(C(F)(F)F)cc2)sc1CSc1ccc2c(c1)CC(C(=O)O)CO2 (stereo not drawn)	139 to 140 °C
CSc1ccc(C(=O)NCc2ccc3c(c2)C(=O)N(C2(C)CCC(=O)NC2=O)C3=O)cc1 (stereo not drawn)	218 to 220 °C
Cc1cc2nnc(C)n2nc1-c1ccc(C#N)cc1	242 to 244 °C
COC(=O)Cc1ccc(OCCNC(=O)C2Cc3ccccc3N2S(=O)(=O)c2ccc(-c3cc(C(F)(F)F)ccc3Cl)cc2)c(OC)c1 (stereo not drawn)	51 to 58 °C
Cc1cccc(OCCF)c1S(N)(=O)=O	103 °C
CCCCc1oc2ccccc2c1-c1ncc(-c2ccc3c(Br)c(OCc4nnn[nH]4)ccc3c2)o1	235 to 237 °C
CCCNC(=O)N1c2ccc(S(=O)(=O)n3cc(-c4ccccc4)[nH]c3=O)cc2CC1C (stereo not drawn)	138 °C
Cc1ccc(Cl)cc1N1C(=O)CON(C)C1=S	100 to 102 °C
CC(=O)Nc1ccc(-c2cc(=O)c(C(=O)O)cn2-c2ccc(F)cc2)cc1	249 to 250 °C
CC(=O)N[C@H]1C(n2cc(Cl)cnc2=O)O[C@H](CO)[C@@H](O)[C@@H]1O (stereo partly drawn)	156 to 158 °C
O=Cc1ccc2c(c1)C13CC2c2ccccc2C1CN(CC1CCCC1)C3 (stereo not drawn)	170 to 175 °C
N=C(N)c1ccc(O)cc1	160 °C
COc1cc(NC(=O)OCCCN2CCN(c3ccc(Cl)cc3)CC2)cc(OC)c1OC	174 °C
COc1ccc(NC(=O)OC(C)(C)C)c(C(=O)NCCc2ccc(N=C(N)c3cccs3)cc2)c1	190 to 192 °C
COC(=O)c1ccc(-c2ccc(C(F)(F)F)cc2)c(COC(C)=O)c1	94 °C
C[C@@H](Cn1ccc2ccc3ncccc3c21)NC(=O)OC(C)(C)C	185 °C
CC1=C(c2ccc(OCC(=O)O)c(Cl)c2Cl)CCCC1=O	143 to 145 °C
N=C(N)NNC(=O)c1cccc(-c2csc(N=C(N)N)n2)n1	194 to 196 °C
CC1=C(C=O)COc2ccccc21	68 to 70 °C
Cc1cc2c(c(C)c1SC#N)CCC(C)(C)O2	96 to 97 °C
COCc1nc2c(N)nc3cc(CCC(N)=O)ccc3c2n1CC(C)(C)O	228 to 230 °C
CCc1ccc(S(=O)(=O)O)cc1	45.1 to 46.5 °C
CC(=O)Nc1cc(Cl)ccc1OCC#N	146 to 149 °C

SMILES	melting point
CN1CCN(S(=O)(=O)c2cc(NC(=O)c3cnn4c(C(F)F)cc(-c5ccc(C(F)(F)F)cc5)nc34)c(Cl)s2)CC1	293 °C
CC(=O)c1c(CBr)c(CBr)c(C(C)=O)c2c1C(=O)c1ccccc1C2=O	225 to 227 °C
C=CCCOc1ccc(CCCOC(=O)NS(=O)(=O)NCCOC(C)C)c(Oc2ncc(C(F)(F)F)cc2Cl)c1	111 to 113 °C
Cc1cc(OCC2CO2)c(N)c([N+](=O)[O-])c1 (stereo not drawn)	90 to 91 °C
COc1ccc2sc(C(N)=O)c(SC)c2c1	171 to 173 °C
O=C(O)c1n[nH]c2c1C=CC(c1ccccc1)(c1ccccc1)C2	> 260 °C
CCOC(=O)C(Cc1ccccc1)C(=O)Nc1ccc(CP(=O)(OCC)OCC)cc1 (stereo not drawn)	115 to 116 °C
O=C(O)c1cccc2ccoc12	159 to 161 °C
CC(C)(C)c1ccc(/C=N/OCCCOc2ccc(CCC(=O)O)cc2)cc1	101 to 102 °C
CCNc1nc(Nc2ccccc2)ncc1C=CC(=O)OCC	125 to 126 °C
COc1cccc(NC(=O)c2cc(-c3ccc(F)cc3F)ccc2O)c1	187 to 188 °C
OC1(c2ccc(Cl)cc2)CCN(Cc2c[nH]c3ccccc23)CC1	213 to 214 °C
CN(NC(=O)OCc1ccccc1)C(=O)c1cc(OCc2ccccc2)c(OCc2ccccc2)c(CNC(=O)OC(C)(C)C)n1	125 to 127 °C
O=C(O)CCSC1c2cccc(O)c2C(=O)c2c(O)cccc21	152 to 153 °C
Cc1ncc(CNC(=O)c2sc(N3CCN(Cc4ccc(F)cc4)C3=O)nc2C)s1	213 to 215 °C
N#CC1=C(Nc2ccc(F)cc2)CCCC1	79 to 82 °C
CS(=O)(=O)c1ccc(Oc2cc(OCc3ccccc3)c3[nH]c(C(=O)O)cc3c2)cc1	232 to 233 °C
N#Cc1cccc(-c2nc(Nc3cnccn3)sc2-c2ccncn2)c1	> 280 °C
CCSC(c1ccc(Cl)cc1Cl)C(C(O)C(C)(C)CF)n1cncn1 (stereo not drawn)	182 °C
COc1ccc(C(=O)c2c(N)sc3c2CCN(Cc2ccccc2)C3)cc1	164 to 165 °C
CNC(=O)CC1CCN(Cc2cnc3c(C)c(NC(=O)c4ccc(-c5ccc(F)cc5)cc4)ccc3c2)CC1	229 to 231 °C
COc1cccc(C=CC(=O)C=Cc2cccc(OC)c2)c1	52 to 54 °C
COc1cccc2c1cc(C(=O)OCc1ccccc1)n2CC(=O)OC(C)(C)C	96 to 98 °C
O=C(c1c(-c2ccccc2)oc2ccccc2c1=O)N1CCN(c2ccccn2)CC1	178 to 181 °C
COc1ccc(NC(=S)NCCCn2ccnc2)cc1OC	160 to 161 °C

SMILES	melting point
C#CCSc1ncn(C(=O)N(CC)CC)n1	67 to 69 °C
O=C(Nc1ccccc1Nc1ccccc1)N[C@@H](Cc1ccc(NC(=O)c2c(Cl)cccc2Cl)cc1)C(=O)O	174 °C
O=C(COc1noc(-c2ccccc2)c1Cl)NCCO[N+](=O)[O-]	138 to 139 °C
CC(Oc1ccc(F)cc1)c1ccnc2ncnn12 (stereo not drawn)	100 to 102 °C
CC(C)C[C@@H](C#N)NC(=O)[C@@H]1CCCC[C@@H]1NC(=O)c1ccc2ncsc2c1	200 to 201 °C
CC1(C)Cc2cccc(Oc3ccc(N)cc3Cl)c2O1	102 to 104 °C
CC1(C)OC(=O)Nc2ccc(-c3ccc(C#N)n3CC(=O)O)cc21	207 to 209 °C
CCNc1c(OC)cc(C(=O)OC)cc1OC	50 to 51 °C
COc1cc2c(N3CCN(C(=O)Nc4ccc(Oc5ccccc5)cc4)CC3)ncnc2cc1OC(C)C	157 to 160 °C
CCCOc1ccc(S(C)(=O)=O)cc1C(=O)Nc1c(C(N)=O)nn(CC2CC2)c1CC	185 to 186 °C
Cc1sc(N2C(=O)c3ccccc3C2=O)c(C(=O)c2ccc(Cl)cc2)c1CBr	173 to 175 °C
Cc1cc(O)nc(-c2cccc(-c3ccccc3)n2)n1	172 °C
COCC(=O)N[C@H]1CC[C@H](CCN2CCN(c3nccc4c3OCC4)CC2)CC1	126 °C
CC(=O)N1CC(=O)N2CCc3ccccc3C2C1 (stereo not drawn)	144 to 145 °C
CCNC(=O)N(c1ccc(C(O)(C(F)(F)F)C(F)(F)F)cc1)S(C)(=O)=O	161 to 164 °C
CC1Cc2ccccc2NC1C1=NCCN1 (stereo not drawn)	138 to 139 °C
Nc1nc2ccc(NC(=O)CNC(=O)[C@@H](Cc3ccccc3)NS(=O)(=O)Cc3ccccc3)cc2s1	127 to 130 °C
Cc1nnn(-c2ccc(F)cc2)c1CCl	70 to 71 °C
CCCCCCCC[C@@H](O)C(=O)Nc1c(SC)ccc2ncccc12	119 to 120 °C
NC(=O)CN1CCN(c2cccccc2=O)CC1	169 to 171 °C
CCc1cc2cc(O)ccc2c(Oc2ccc(/C=C/C(=O)O)cc2)c1-c1ccccc1	188 to 190 °C
COc1ccc(-c2nc(Sc3ccc(F)cc3)[nH]c2-c2ccc(OC)cc2)cc1	106 °C
CSC(C(N)=O)c1cccc(C(=O)c2ccccc2)c1N (stereo not drawn)	153 to 155 °C
COc1ccc2c(c1)C(=O)N(c1ccc3c(c1)cc(C)n3C)C2	209 to 213 °C
FC(F)(F)c1cc(I)c2c(c1)ncn2-c1ccccc1	118 to 120 °C

SMILES	melting point
CCOC(=O)C1(C(C)C)OC2(O)C3CCCN3C(=O)C(C(C)C)N2C1=O (stereo not drawn)	103 to 104 °C
Cc1ccc(-c2nc(Cc3cc4cc(N(OCc5ccccc5)C(N)=O)ccc4o3)c(C)o2)cc1	77 to 80 °C
COc1ccc(CCN(C)CCCC2(c3ccc(OC)c(OC)c3)S(=O)(=O)CCCS2(=O)=O)cc1OC	144 °C
Nc1c(Br)cc(-n2cnnc2)cc1C(F)(F)F	202 to 203 °C
COC1CCCC2=C(O)C3=C(C(=O)c4ccc(C(C)=O)cc4C3)C(O)C21 (stereo not drawn)	223 to 226 °C
Cc1cc(OC/C=C/c2ccc(C(C)C)cc2)c(C)c(C)c1NC=O	165 to 167 °C
CCCNC(=S)NS(=O)(=O)c1cc2c(cc1OC)OCC(NC(=O)c1cc(Cl)ccc1OC)C2 (stereo not drawn)	182 °C
CCOc1nc(C)ccc1C#N	90 to 92 °C
O=C(CCNC(=O)OCc1ccccc1)NC1C(C(=O)O)OC(n2cnc3c(NC(=O)c4ccccc4)ncnc32)C1O (stereo not drawn)	136 to 141 °C
CCCCCCCCNC(=O)Nc1ccccc1C(=O)NCC1CCN(C(c2ccccc2)c2ccccc2)CC1	155 to 157 °C
O=C1Nc2cc(Cl)ccc2Cn2cccc21	177 to 179 °C
CCOC(=O)c1ccc(-c2[nH]nc3c2C(=O)c2c(NC(=O)N(NC)NC)cccc2-3)s1	252 °C
CCOC(=O)N1CCC(Nc2nc3ccccc3n2Cc2ccoc2C)CC1	150 °C
CCOC(=O)C1(C(=O)OCC)CCC2(CC1)NCCc1cc(OC)c(OC)cc12	103 to 104 °C
CCOC(=O)C1=C(N2CCCC2)N=C(C)C(C(C)=O)C1c1cccc([N+](=O)[O-])c1 (stereo not drawn)	130 °C
O=C(CCC(=O)N1CCC(c2ccc(Cl)cc2)CC1)c1ccc2c(c1)CCN(C1CCCC1)CC2	160 to 162 °C
COC1=N/C(=C\c2c[nH]c3ncc(Cl)cc23)C(=O)N1c1ccccc1	228 °C
Oc1cc2ccc(Br)cc2cc1C12CC3CC(CC(C3)C1)C2	215 to 216 °C
CCN[C@H]1CCC[C@H](Oc2ccc3[nH]ncc3c2C)C1 (relative stereo)	95 to 97 °C
CCNc1nc(Cl)c(C#N)c(NC(C)C)n1	160 to 165 °C
COC(=O)c1nc(N(C)C2CCCCC2)ccc1Oc1nc(OC)cc(OC)n1	116 to 118 °C
CN(c1cccc2cc(C3=NCC(CC(=O)NS(C)(=O)=O)S3)[nH]c12)S(=O)(=O)c1cccs1 (stereo not drawn)	141 °C
CCCCCCCCCCCCc1ccc(C#Cc2c3ccccc3c(C#Cc3ccc(CCCCCCCCCCCC)cc3)c3ccccc23)cc1	111 to 113 °C
